Reference: the supplement of paper PMC10307832

Key:
Experiment in all cases: relative viability (nuclei count vs DMSO), 5 days (fraction); higher = more cells survive
[1] = compound: C1CN(CCC1C(C2=CC3=C(C=C2)OCO3)(C4=CC5=C(C=C4)OCO5)O)C(=O)OC6=CC=C(C=C6)[N+](=O)[O-] [JZL-184] + CC(C)C[C@H](NC(=O)[C@H](Cc1ccccc1)NC(=O)c1cnccn1)B(O)O [Bortezomib] (partner 0.002 µM)
Summary of the method: (§1)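 Five library-drug doses in √10 steps were combined with a fixed anchor-drug dose, or a single drug was given alone, by pin tool to lung cancer cell lines in 1536-well plates the day after seeding. Nuclei were stained and counted after 5 days. Relative viability is the nuclei count in treated wells over that in vehicle wells, taken as the median of duplicate plates.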

[2] = compound: C1CN(CCC1C(C2=CC3=C(C=C2)OCO3)(C4=CC5=C(C=C4)OCO5)O)C(=O)OC6=CC=C(C=C6)[N+](=O)[O-] [JZL-184] + C[C@@H](Oc1cc(-c2cnn(C3CCNCC3)c2)cnc1N)c1c(Cl)ccc(F)c1Cl [Crizotinib] (partner 1 µM)
Summary of the method: as §1

[3] = compound: C1CN(CCC1C(C2=CC3=C(C=C2)OCO3)(C4=CC5=C(C=C4)OCO5)O)C(=O)OC6=CC=C(C=C6)[N+](=O)[O-] [JZL-184] + C[C@]1(O)C[C@@H](c2nc(-c3ccc4ccc(-c5ccccc5)nc4c3)c3c(N)nccn32)C1 [Linsitinib] (partner 1 µM)
Summary of the method: as §1

[4] = compound: C1CN(CCC1C(C2=CC3=C(C=C2)OCO3)(C4=CC5=C(C=C4)OCO5)O)C(=O)OC6=CC=C(C=C6)[N+](=O)[O-] [JZL-184] + Cc1nc(NC(=O)N2CCC[C@H]2C(N)=O)sc1-c1ccnc(C(C)(C)C(F)(F)F)c1 [Alpelisib] (partner 2 µM)
Summary of the method: as §1

[5] = compound: C1CN(CCC1C(C2=CC3=C(C=C2)OCO3)(C4=CC5=C(C=C4)OCO5)O)C(=O)OC6=CC=C(C=C6)[N+](=O)[O-] [JZL-184] + CS(=O)(=O)N1CCN(Cc2cc3nc(-c4cccc5[nH]ncc45)nc(N4CCOCC4)c3s2)CC1 [Pictilisib] (partner 1 µM)
Summary of the method: as §1

Cell Line	relative viability ([1]; first compound 0.04 µM)	relative viability ([1]; first compound 0.4 µM)	relative viability ([1]; first compound 1.265 µM)	relative viability ([1]; first compound 4 µM)	relative viability ([2]; first compound 0.04 µM)	relative viability ([2]; first compound 0.4 µM)	relative viability ([2]; first compound 1.265 µM)	relative viability ([2]; first compound 4 µM)	relative viability ([3]; first compound 0.04 µM)	relative viability ([3]; first compound 0.4 µM)	relative viability ([3]; first compound 1.265 µM)	relative viability ([3]; first compound 4 µM)	relative viability ([4]; first compound 0.04 µM)	relative viability ([4]; first compound 0.4 µM)	relative viability ([4]; first compound 1.265 µM)	relative viability ([4]; first compound 4 µM)	relative viability ([5]; first compound 0.04 µM)	relative viability ([5]; first compound 0.4 µM)	relative viability ([5]; first compound 1.265 µM)	relative viability ([5]; first compound 4 µM)
201T	1.14	1.04	1.07	1.07	1.06	1.03	1.01	1.01	1.03	1.01	1.05	1.02	0.991	1.05	1.04	0.997	0.743	0.67	0.727	0.649
A549	–	–	–	–	0.609	0.765	0.68	0.699	0.559	0.457	0.519	0.633	0.966	0.588	0.894	0.614	0.643	0.451	0.478	0.498
A-427	1.05	0.965	1	0.918	1.03	0.907	0.914	0.77	1.15	1.17	1.18	1.1	1.08	1.06	1.1	0.979	0.797	0.639	0.852	0.697
ABC-1	0.336	0.352	0.375	0.247	1.35	0.925	1.33	1.21	0.988	0.821	0.812	0.756	1.1	0.996	1.06	0.952	0.946	0.71	0.898	0.625
BEN	0.912	0.711	0.942	0.799	1	0.87	1.02	0.861	1.19	0.881	0.995	0.995	1.18	0.998	1.12	1.03	0.661	0.515	0.637	0.54
CAL-12T	1.15	0.942	1.18	1.08	0.993	0.607	0.621	0.497	1.06	0.775	0.828	0.75	1.5	1.39	1.08	1.17	0.415	0.263	0.686	0.422
COR-L23	1.2	0.915	0.979	0.91	0.704	0.725	0.723	0.636	1.15	0.926	0.92	0.837	1.02	0.672	0.704	0.708	0.945	0.775	0.842	0.757
